Results from US8252799B2, “Hexahydro-1H-4,7-methanoisoindole-1,3-dione compounds” (Merck Sharp & Dohme Corp., priority 2007, dated 2012).

Legend:
5HT1A (native) = molecular target: T1, 5HT1A (native) (Homo sapiens, UniProt P08908); test: In Vitro Affinity (Ki) on Human Receptors: 5HT1A (native); format: binding; conditions: human receptor
T1 construct: 5HT1A (native) 8 nM
T1 sequence (P08908 1-422): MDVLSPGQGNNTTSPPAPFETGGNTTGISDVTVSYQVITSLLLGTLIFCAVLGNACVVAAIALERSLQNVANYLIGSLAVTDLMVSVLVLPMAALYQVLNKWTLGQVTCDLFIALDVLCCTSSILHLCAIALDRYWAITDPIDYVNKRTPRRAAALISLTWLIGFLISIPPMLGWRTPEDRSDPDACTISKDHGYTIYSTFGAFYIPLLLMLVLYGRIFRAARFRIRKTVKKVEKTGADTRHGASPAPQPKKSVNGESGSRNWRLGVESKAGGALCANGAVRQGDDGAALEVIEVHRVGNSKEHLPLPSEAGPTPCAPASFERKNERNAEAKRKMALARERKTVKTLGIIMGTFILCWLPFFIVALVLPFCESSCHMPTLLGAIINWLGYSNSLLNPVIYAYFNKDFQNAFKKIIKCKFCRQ

α2C [1] = molecular target: T2, α2C (Homo sapiens, UniProt P18825); test: In Vitro Affinity (Ki) on Human Receptors: α2C; format: binding; conditions: human receptor
T2 sequence (P18825 1-462): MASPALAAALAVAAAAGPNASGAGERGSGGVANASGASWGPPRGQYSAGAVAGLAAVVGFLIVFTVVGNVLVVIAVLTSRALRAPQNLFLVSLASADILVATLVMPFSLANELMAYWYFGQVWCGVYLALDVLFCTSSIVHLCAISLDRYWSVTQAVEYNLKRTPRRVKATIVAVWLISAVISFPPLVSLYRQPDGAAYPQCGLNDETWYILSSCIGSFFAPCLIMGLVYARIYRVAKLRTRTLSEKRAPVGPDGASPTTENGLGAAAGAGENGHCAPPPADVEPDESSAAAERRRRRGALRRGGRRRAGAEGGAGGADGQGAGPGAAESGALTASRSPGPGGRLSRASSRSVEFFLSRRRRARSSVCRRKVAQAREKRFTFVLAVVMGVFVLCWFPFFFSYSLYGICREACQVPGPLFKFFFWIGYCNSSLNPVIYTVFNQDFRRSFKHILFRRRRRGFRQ

α2A [2] = molecular target: T3, α2A (Homo sapiens, UniProt P08913); test: In Vitro Affinity (Ki) on Human Receptors: α2A; format: binding; conditions: human receptor
T3 sequence (P08913 1-465): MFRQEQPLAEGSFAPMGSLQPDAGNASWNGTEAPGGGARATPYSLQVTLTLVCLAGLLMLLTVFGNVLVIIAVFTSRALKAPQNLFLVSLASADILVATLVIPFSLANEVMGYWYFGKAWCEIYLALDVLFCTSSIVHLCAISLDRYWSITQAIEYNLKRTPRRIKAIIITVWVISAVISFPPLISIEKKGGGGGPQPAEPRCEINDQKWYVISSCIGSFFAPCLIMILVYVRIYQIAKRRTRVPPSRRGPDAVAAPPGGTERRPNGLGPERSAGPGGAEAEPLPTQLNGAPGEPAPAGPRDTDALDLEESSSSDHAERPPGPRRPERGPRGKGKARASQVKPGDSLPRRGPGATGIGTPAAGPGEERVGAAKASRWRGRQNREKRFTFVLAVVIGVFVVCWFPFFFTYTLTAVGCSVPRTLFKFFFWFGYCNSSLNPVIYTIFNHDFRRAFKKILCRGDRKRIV

D2 [3] = molecular target: T4, D2 (Homo sapiens, UniProt P14416); test: In Vitro Affinity (Ki) on Human Receptors: D2; format: binding; conditions: human receptor
T4 sequence (P14416 whole entry): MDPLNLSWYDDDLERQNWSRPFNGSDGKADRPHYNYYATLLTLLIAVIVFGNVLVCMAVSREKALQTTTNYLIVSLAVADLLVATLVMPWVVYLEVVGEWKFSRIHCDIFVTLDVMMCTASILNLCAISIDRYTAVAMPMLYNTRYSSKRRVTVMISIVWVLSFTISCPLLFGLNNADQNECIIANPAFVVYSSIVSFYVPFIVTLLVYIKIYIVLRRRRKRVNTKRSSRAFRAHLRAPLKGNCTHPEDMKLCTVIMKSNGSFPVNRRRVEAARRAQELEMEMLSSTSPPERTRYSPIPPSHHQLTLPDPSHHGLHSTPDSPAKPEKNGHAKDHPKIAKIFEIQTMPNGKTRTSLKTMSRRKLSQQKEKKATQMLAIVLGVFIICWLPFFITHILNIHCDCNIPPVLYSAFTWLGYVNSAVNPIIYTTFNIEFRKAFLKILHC

5HT2A [4] = molecular target: T5, 5HT2A (Homo sapiens, UniProt P28223); test: In Vitro Affinity (Ki) on Human Receptors: 5HT2A; format: binding; conditions: human receptor
T5 sequence (P28223 whole entry): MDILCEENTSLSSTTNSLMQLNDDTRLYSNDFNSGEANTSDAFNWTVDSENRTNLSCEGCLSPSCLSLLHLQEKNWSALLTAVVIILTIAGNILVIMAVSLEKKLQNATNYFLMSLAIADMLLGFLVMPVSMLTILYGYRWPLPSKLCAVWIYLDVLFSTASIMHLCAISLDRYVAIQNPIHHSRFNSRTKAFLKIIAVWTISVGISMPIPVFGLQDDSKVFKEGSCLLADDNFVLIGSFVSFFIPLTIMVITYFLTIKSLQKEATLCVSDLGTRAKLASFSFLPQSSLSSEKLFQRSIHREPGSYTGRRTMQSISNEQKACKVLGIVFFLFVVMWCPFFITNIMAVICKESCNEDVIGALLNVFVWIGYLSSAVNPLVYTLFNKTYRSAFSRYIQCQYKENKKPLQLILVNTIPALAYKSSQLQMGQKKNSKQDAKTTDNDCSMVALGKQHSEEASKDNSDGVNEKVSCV

D3 = D3 (Homo sapiens, UniProt P35462); test: In Vitro Affinity (Ki) on Human Receptors: D3; format: binding; conditions: human receptor
Sequence of D3 (P35462 whole entry): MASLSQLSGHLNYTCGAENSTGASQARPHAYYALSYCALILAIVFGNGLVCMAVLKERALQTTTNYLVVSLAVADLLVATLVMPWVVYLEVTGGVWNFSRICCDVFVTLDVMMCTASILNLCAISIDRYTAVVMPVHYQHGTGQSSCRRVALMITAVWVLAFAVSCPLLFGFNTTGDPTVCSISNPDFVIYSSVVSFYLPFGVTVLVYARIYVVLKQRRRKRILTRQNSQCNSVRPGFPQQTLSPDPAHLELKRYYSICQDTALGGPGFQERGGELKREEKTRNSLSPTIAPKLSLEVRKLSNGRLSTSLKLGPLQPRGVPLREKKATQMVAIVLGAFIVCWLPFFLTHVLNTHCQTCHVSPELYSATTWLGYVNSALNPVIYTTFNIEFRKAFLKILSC

5HT2C [5] = molecular target: T6, 5HT2C (Homo sapiens, UniProt P28335); test: In Vitro Affinity (Ki) on Human Receptors: 5HT2C; format: binding; conditions: human receptor
T6 sequence (P28335 33-458): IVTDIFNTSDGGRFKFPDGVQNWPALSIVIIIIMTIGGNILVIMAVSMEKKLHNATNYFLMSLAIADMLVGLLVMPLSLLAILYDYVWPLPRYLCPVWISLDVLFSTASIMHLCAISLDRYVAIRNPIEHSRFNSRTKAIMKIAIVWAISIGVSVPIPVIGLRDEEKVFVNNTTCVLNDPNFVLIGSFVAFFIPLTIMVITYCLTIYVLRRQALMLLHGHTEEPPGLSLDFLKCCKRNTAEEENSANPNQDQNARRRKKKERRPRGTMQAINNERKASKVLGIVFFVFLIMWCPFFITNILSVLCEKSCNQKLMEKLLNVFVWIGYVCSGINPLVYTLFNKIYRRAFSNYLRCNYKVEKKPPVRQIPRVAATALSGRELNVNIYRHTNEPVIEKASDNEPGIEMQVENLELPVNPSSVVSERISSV

H1 [6] = molecular target: T7, H1 (Homo sapiens, UniProt P35367); test: In Vitro Affinity (Ki) on Human Receptors: H1; format: binding; conditions: human receptor
T7 sequence (P35367 whole entry): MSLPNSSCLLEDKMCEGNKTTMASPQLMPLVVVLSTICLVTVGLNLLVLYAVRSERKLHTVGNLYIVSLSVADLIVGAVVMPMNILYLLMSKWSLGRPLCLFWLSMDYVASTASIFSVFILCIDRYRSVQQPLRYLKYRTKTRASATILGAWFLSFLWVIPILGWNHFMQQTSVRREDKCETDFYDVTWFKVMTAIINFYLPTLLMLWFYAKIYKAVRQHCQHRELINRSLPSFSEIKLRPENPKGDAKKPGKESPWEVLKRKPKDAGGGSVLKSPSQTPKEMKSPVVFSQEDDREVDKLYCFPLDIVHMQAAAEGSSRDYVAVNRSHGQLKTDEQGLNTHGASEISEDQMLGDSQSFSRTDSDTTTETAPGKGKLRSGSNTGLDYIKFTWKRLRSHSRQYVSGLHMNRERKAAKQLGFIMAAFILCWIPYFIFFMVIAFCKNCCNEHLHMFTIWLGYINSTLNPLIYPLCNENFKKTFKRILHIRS

D1 [7] = molecular target: T8, D1 (Homo sapiens, UniProt P21728); test: In Vitro Affinity (Ki) on Human Receptors: D1; format: binding; conditions: human receptor
T8 sequence (P21728 whole entry): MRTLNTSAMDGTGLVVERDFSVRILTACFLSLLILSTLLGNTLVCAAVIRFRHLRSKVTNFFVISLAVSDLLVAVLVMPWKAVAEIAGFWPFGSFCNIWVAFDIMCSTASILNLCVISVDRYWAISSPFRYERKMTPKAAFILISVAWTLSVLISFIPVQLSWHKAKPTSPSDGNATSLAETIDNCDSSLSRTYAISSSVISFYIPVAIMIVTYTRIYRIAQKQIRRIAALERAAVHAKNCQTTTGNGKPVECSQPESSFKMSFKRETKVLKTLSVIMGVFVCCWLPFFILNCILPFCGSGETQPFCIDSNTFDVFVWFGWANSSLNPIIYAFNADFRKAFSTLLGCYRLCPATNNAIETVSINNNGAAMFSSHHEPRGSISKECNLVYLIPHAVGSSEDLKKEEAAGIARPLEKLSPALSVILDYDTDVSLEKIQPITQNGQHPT

α1A = molecular target: T9, α1A (Homo sapiens, UniProt P35348); test: In Vitro Affinity (Ki) on Human Receptors: α1A; format: binding; conditions: human receptor
T9 sequence (P35348 1-466): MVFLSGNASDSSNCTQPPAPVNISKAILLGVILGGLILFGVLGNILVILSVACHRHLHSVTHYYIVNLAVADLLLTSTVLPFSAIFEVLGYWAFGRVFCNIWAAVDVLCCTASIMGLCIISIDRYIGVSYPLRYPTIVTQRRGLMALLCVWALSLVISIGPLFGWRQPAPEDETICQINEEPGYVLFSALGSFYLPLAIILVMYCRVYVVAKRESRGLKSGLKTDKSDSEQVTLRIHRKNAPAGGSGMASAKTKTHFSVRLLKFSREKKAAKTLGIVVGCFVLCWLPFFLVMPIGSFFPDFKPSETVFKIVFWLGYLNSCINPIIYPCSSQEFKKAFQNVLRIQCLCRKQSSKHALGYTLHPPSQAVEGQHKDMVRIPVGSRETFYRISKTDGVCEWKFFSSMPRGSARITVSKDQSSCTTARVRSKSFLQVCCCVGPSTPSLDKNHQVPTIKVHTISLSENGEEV

α1D = molecular target: T10, α1D (Homo sapiens, UniProt P25100); test: In Vitro Affinity (Ki) on Human Receptors: α1D; format: binding; conditions: human receptor
T10 sequence (P25100 1-572): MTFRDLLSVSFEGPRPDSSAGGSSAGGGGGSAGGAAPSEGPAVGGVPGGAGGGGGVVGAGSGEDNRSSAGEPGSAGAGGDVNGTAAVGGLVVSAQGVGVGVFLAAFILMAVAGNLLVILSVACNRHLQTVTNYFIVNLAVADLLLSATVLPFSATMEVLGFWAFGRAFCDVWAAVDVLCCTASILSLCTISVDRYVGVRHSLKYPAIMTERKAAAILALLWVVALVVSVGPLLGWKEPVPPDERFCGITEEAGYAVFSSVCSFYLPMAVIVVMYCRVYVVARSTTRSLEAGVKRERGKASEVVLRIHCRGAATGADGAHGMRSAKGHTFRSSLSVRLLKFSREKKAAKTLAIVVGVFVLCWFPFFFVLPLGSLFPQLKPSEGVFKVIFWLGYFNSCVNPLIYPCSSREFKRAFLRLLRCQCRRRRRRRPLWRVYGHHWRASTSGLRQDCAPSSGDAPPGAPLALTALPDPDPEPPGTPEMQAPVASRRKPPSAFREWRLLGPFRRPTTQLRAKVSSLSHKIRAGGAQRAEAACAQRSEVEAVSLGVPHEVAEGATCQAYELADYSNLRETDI

hERG [8] = molecular target: T11, hERG (Homo sapiens, UniProt Q12809); test: In Vitro Affinity (Ki) on Human Receptors: hERG; format: binding
T11 sequence (Q12809 whole entry): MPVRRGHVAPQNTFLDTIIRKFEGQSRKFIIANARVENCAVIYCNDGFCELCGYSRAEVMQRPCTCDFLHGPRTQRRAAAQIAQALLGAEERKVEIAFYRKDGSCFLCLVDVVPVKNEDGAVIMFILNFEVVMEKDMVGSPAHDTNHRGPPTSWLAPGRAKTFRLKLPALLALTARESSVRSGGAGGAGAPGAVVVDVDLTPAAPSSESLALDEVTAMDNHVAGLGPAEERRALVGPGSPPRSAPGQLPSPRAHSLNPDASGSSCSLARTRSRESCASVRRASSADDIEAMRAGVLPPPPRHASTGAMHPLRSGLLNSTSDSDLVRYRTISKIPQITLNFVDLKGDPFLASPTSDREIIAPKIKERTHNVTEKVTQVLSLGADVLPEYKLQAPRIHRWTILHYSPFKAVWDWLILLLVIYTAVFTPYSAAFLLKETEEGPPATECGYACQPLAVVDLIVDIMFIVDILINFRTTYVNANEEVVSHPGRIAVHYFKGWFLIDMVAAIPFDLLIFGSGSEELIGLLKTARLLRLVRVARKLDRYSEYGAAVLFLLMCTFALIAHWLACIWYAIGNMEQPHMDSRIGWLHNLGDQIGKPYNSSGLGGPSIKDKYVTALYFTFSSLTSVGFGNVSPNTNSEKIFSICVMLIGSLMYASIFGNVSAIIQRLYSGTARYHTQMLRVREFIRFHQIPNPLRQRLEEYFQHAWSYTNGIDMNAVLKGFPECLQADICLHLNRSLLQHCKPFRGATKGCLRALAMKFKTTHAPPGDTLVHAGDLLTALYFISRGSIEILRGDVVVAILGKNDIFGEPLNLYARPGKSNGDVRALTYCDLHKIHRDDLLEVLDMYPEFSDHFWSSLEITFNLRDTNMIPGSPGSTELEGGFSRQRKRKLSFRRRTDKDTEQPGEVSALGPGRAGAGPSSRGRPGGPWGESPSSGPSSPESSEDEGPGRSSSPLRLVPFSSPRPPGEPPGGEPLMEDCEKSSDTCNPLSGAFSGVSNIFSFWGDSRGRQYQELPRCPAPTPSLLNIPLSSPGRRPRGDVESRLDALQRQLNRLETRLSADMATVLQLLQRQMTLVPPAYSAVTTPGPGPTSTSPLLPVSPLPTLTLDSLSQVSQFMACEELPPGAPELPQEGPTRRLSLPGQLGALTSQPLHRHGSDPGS

5HT1A = molecular target: T12, 5HT1A (Homo sapiens, UniProt P08908); test: Functional Potency on Human Receptors: 5HT1A; format: biochemical; conditions: human receptor
T12 sequence (P08908 1-422): T1 sequence (P08908 1-422)

α2C [9] = molecular target: T2, α2C; test: Functional Potency (IC50) on Human Receptors: α2C; format: biochemical; conditions: human receptor
α2A [10] = molecular target: T3, α2A; test: Functional Potency (IC50) on Human Receptors: α2A; format: biochemical; conditions: human receptor
5HT2A [11] = molecular target: T5, 5HT2A; test: Functional Potency (IC50) on Human Receptors: 5HT2A; format: biochemical; conditions: human receptor
D2 [12] = molecular target: T4, D2; test: Functional Potency (IC50) on Human Receptors: D2; format: biochemical; conditions: human receptor
D1 [13] = molecular target: T8, D1; test: Functional Potency (IC50) on Human Receptors: D1; format: biochemical; conditions: human receptor
5HT2C [14] = molecular target: T6, 5HT2C; test: Functional Potency (IC50) on Human Receptors: 5HT2C; format: biochemical; conditions: human receptor
H1 [15] = molecular target: T7, H1; test: Functional Potency (IC50) on Human Receptors: H1; format: biochemical; conditions: human receptor
hERG [16] = molecular target: T11, hERG; test: Functional Potency (IC50) on Human Receptors: hERG; format: biochemical

`C[C@@]1(O)CC2CC1[C@@H]1C(=O)N(CC3CCCC[C@H]3CN3CCN(c4nsc5ccccc45)CC3)C(=O)[C@H]21` (stereo in doubt) [(3aS,4S,5R,7S,7aR)-2-[((1R,2R)-2-{[4-(1,2-benzisothiazol-3-yl)piperazin-1-yl]methyl}cyclohexyl)methyl]-5-hydroxy-5-methylhexahydro-1H-4,7-methanoisoindole-1,3-dione] gave a Ki (5HT1A (native)) of 0.008 µM, a Ki (α2C [1]) of 0.009 µM and a Ki (α2A [2]) of 0.059 µM. The Ki (D2 [3]) was 0.001 µM, the Ki (5HT2A [4]) was under 0.01 µM and the Ki (D3) was 0.002 µM. The Ki (5HT2C [5]) was 0.016 µM, the Ki (H1 [6]) was 0.371 µM and the Ki (D1 [7]) was 0.457 µM. The Ki (α1A) was 0.031 µM, the Ki (α1D) was 0.082 µM and the Ki (hERG [8]) was 0.644 µM. The EC50 (5HT1A) was 0.098 µM, the “Functional Potency 5HT1A % max” value (5HT1A; max response) was 77% and the IC50 (α2C [9]) was 0.16 µM. It also gave an IC50 (α2A [10]) of 1.22 µM, an IC50 (5HT2A [11]) of 0.032 µM and an IC50 (D2 [12]) of 0.025 µM. It also gave an IC50 (D1 [13]) of 1.65 µM, an IC50 (5HT2C [14]) of 1.71 µM and an IC50 (H1 [15]) of 3.1 µM. It also gave an IC50 (hERG [16]) of 4 µM.
